Assay [1] has as its system Fao liver cells. Kind of assay: ER stress and insulin receptor signaling in Fao liver cells (immunoprecipitation / immunoblotting). Format: cell-based, rat. The conditions noted are these: for serine (Ser307) phosphorylation of IRS-1: Fao cells treated with ER stress inducer (tunicamycin 5 μg/ml 3 h; thapsigargin 300 nM). How it is done: (§1) FIG. 2 depicts that the induction of ER stress impairs insulin action through JNK mediated phosphorylation of IRS-1. (A) ER stress was induced in Fao liver cells by a 3-hour treatment with 5 μg/ml tunicamycin (Tun). Cells were subsequently stimulated with insulin (Ins). IRS-1 tyrosine and serine (Ser307) phosphorylation, Akt phosphorylation (Ser473), insulin receptor (IR) tyrosine phosphorylation, and their total protein levels were examined using either immunoprecipitation (IP) followed by immunoblotting (IB) or direct immunoblotting. (B) Quantitation of IRS-1 (tyrosine and Ser307), Akt (Ser473), and IR (tyrosine) phosphorylation under the experimental conditions described in (A) with normalization to protein levels for each molecule. (C) Inhibition of ER stress-induced (300 nM thapsigargin for 4 hours) Ser307 phosphorylation of IRS-1 by JNK-1 inhibitor, SP600125 (JNKi, 25 μM). (D) Quantitation of IRS-1 Ser307 phosphorylation under conditions described in (C). (E) Reversal of ER stress-induced inhibition of insulin-stimulated tyrosine phosphorylation (pY) of IRS-1 by a JNK inhibitor. (F) Quantitation of insulin-induced IRS-1 tyrosine phosphorylation levels described in (E). (G) JNK activity, Ser307 phosphorylation of IRS-1, and total IRS-1 levels at indicated times following tunicamycin treatment (Tun, 10 μg/ml for I hour) in IRE-1α^+/+ and IRE-1α^−/− fibroblasts. (H) Insulin-stimulated IRS-1 tyrosine phosphorylation and total IRS-1 levels following tunicamycin treatment (Tun, 10 μg/ml for 1 hour) in IRE-1α^+/+ and IRE-1α^−/− fibroblasts. […] All graphs show mean ±SEM from at least 2 independent experiments and statistical significance from the controls is indicated by * with p<0.005.
FIG. 8 depicts inhibition of insulin receptor signaling by thapsigargin-induced ER stress and the role of Ca^+2 levels in IRS-1 serine phosphorylation. (A) ER stress was induced in Fao cells by 1 hour treatment with 300 nM thapsigargin (Thap), and cells were subsequently stimulated with insulin (Ins). IRS-1 tyrosine phosphorylation (pY) and serine phosphorylation (pSer307), insulin receptor (IR) tyrosine phosphorylation, and total protein levels were examined using either immunoprecipitation (UP) followed by immunoblotting (IB) or direct immunobloting. (B) Fao cells were treated with sulindac sulfide (SS: 0, 7.5, 30, and 60 μM) for 45 minutes with or without an additional hour of exposure to 300 nM thapsigargin (Thap). IRS-1 serine phosphorylation and total IRS-1 protein levels were examined as described above.
Cells: FaO cells were cultured with RPMI 1640 (Gibco) containing 10% fetal bovine serum (FBS). At 70-80% confluency, cells were serum depleted for 12 hours before starting the experiments. Reagents including tunicamycin, thapsigargin, and JNK inhibitors were gently added to the culture dishes in the incubator to prevent any environmental stress. JNK inhibitors were added 1 hour before tunicamycine/thapsigargin treatment. The XBP-1^−/− MEF cells, IRE-1α^−/− MEF cells (provided by Dr. David Ron (New York University School of Medicine) and their wild type (WT) controls were cultured in Dulbecco's Modified Eagle Medium (DMEM) (Gibco) containing 10% FBS. Experiments in MEF cells were carried out similar to those in FaO cells except after 6 hours of serum depletion.
Protein Extracts From Cells: At the end of each treatment, cells were immediately frozen in liquid nitrogen and kept at −80° C. Protein extracts were prepared with a lysis buffer, containing 25 mM Tris-HCl (pH7.4), 2 mM Na3VO4, 10 mM NaF, 10 mM Na4P2O7, 1 mM EGTA, 1 mM EDTA, 1% NP40, 5 μg/ml leupeptin, 5 μg/ml aprotinin, 10 nM okadaic acid, and 1 mM PMSF. Immunoprecipitations and immunoblotting experiments were performed with […] and 75 ug total protein, respectively.
Background: In western blotting, separated proteins are transferred to a membrane and probed.

Assay [2] has as its system WT MEF cells. Kind of assay: ER stress response to low dose tunicamycin in WT MEF cells. Type of assay: cell-based, mouse. The conditions noted are these: low dose of tunicamycin 0.5 μg/ml. From the text:
(§2) FIG. 3 depicts that alteration of the ER stress response by manipulation of XBP-1 levels leads to alterations in insulin receptor signaling. ER stress responses in XBP-1s overexpressing cells, XBP-1^−/− cells, and their controls. (A) Induction of XBP-1s expression upon removal of doxycycline in mouse embryonic fibroblasts (MEF). (B) Southern blot analysis of XBP-1^−/− MEF cells and their WT controls for the wild type (9.4 kb) and targeted (6.5 kb) alleles. (C) PERK phosphorylation (p-PERK) and JNK activity in the XBP-1s overexpressing cells and their control cells (−Dox and +Dox, respectively) upon tunicamycin treatment (Tun, 2 μg/ml). (D) PERK phosphorylation and JNK activity upon low dose tunicamycin treatment (Tun, 0.5 μg/ml) in XBP-1^−/−-MEF cells and their WT controls. (E) IRS-1 Ser307 phosphorylation upon tunicamycin treatment (Tun, 2 μg/ml) in the XBP-1s overexpressingcells and the control cells (−Dox and +Dox, respectively), detected using immunoprecipitation (IP) of IRS-1 followed by immunoblotting (IB) with an IRS-1 phosphoserine 307-specific antibody. […] The ratio of IRS-1 tyrosine phosphorylation to total IRS-1 level was summarized from independent experiments and was presented in the graph. (G) IRS-1 Ser307 phosphorylation upon tunicamycin treatment (Tun, 0.5 μg/ml) in XBP-1^−/− cells and WT controls was detected as described in panel C. […]

Assay [3] has as its system IRE-1α+/+ (WT) fibroblasts. Kind of assay: ER stress-induced JNK activation and IRS-1 phosphorylation in wild type fibroblasts. Type of assay: cell-based, mouse. The note with it: tunicamycin 10 μg/ml for 1 hour. How it is done:
as §1
Cells: FaO cells were cultured with RPMI 1640 (Gibco) containing 10% fetal bovine serum (FBS). At 70-80% confluency, cells were serum depleted for 12 hours before starting the experiments. Reagents including tunicamycin, thapsigargin, and JNK inhibitors were gently added to the culture dishes in the incubator to prevent any environmental stress. […]

In assay [4] the test system is XBP-1−/− MEF cells. Kind of assay: ER stress response to low dose tunicamycin in XBP-1−/− MEF cells. Type of assay: cell-based, mouse.
Text: as §2

For assay [5], the system named is IRE-1α−/− fibroblasts. The assay is described as follows: ER stress-induced JNK activation and IRS-1 phosphorylation in IRE-1α-deficient fibroblasts. The conditions noted are these: tunicamycin 10 μg/ml for 1 hour. Type of assay: cell-based, mouse. How it is done: FIG. 2 depicts that the induction of ER stress impairs insulin action through JNK mediated phosphorylation of IRS-1. (A) ER stress was induced in Fao liver cells by a 3-hour treatment with 5 μg/ml tunicamycin (Tun). Cells were subsequently stimulated with insulin (Ins). IRS-1 tyrosine and serine (Ser307) phosphorylation, Akt phosphorylation (Ser473), insulin receptor (IR) tyrosine phosphorylation, and their total protein levels were examined using either immunoprecipitation (IP) followed by immunoblotting (IB) or direct immunoblotting. (B) Quantitation of IRS-1 (tyrosine and Ser307), Akt (Ser473), and IR (tyrosine) phosphorylation under the experimental conditions described in (A) with normalization to protein levels for each molecule. (C) Inhibition of ER stress-induced (300 nM thapsigargin for 4 hours) Ser307 phosphorylation of IRS-1 by JNK-1 inhibitor, SP600125 (JNKi, 25 μM). (D) Quantitation of IRS-1 Ser307 phosphorylation under conditions described in (C). (E) Reversal of ER stress-induced inhibition of insulin-stimulated tyrosine phosphorylation (pY) of IRS-1 by a JNK inhibitor. (F) Quantitation of insulin-induced IRS-1 tyrosine phosphorylation levels described in (E). (G) JNK activity, Ser307 phosphorylation of IRS-1, and total IRS-1 levels at indicated times following tunicamycin treatment (Tun, 10 μg/ml for I hour) in IRE-1α^+/+ and IRE-1α^−/− fibroblasts. […]

Assay [6] relates to mouse embryonic fibroblasts (MEF) without exogenous XBP-1s expression. Kind of assay: ER stress response in MEF-tet-off fibroblasts without exogenous XBP-1s expression. Format: cell-based. The note with it: tunicamycin 2 μg/ml, fibroblasts without exogenous XBP-1s (+Dox). From the text: FIG. 3 depicts that alteration of the ER stress response by manipulation of XBP-1 levels leads to alterations in insulin receptor signaling. ER stress responses in XBP-1s overexpressing cells, XBP-1^−/− cells, and their controls. (A) Induction of XBP-1s expression upon removal of doxycycline in mouse embryonic fibroblasts (MEF). (B) Southern blot analysis of XBP-1^−/− MEF cells and their WT controls for the wild type (9.4 kb) and targeted (6.5 kb) alleles. (C) PERK phosphorylation (p-PERK) and JNK activity in the XBP-1s overexpressing cells and their control cells (−Dox and +Dox, respectively) upon tunicamycin treatment (Tun, 2 μg/ml). (D) PERK phosphorylation and JNK activity upon low dose tunicamycin treatment (Tun, 0.5 μg/ml) in XBP-1^−/−-MEF cells and their WT controls. (E) IRS-1 Ser307 phosphorylation upon tunicamycin treatment (Tun, 2 μg/ml) in the XBP-1s overexpressingcells and the control cells (−Dox and +Dox, respectively), detected using immunoprecipitation (IP) of IRS-1 followed by immunoblotting (IB) with an IRS-1 phosphoserine 307-specific antibody. […] The ratio of IRS-1 tyrosine phosphorylation to total IRS-1 level was summarized from independent experiments and was presented in the graph. (G) IRS-1 Ser307 phosphorylation upon tunicamycin treatment (Tun, 0.5 μg/ml) in XBP-1^−/− cells and WT controls was detected as described in panel C. […] The ratio of IRS-1 tyrosine phosphorylation to total IRS-1 level was summarized from independent experiments and presented in the graph. All graphs show mean±SEM from at least 2 independent experiments and statistically significance from the controls is indicated by * with p<0.005.
Overexpression of XBPIs in MEFs: MEF-tet-off cells (Clontech) were cultured in DMEM with 100 μg/ml G418 and 1 μg/ml doxycycline. The MEF-tet-off cells express exogenous tTA (tetracycline-controlled transactivator) protein, which binds to TRE (tetracycline response element) and activates transcription only in the absence of tetracycline or doxycycline. The cDNA of the spliced form of XBP-1 was ligated into pTRE2hyg2 plasmid (Clontech). The MEF-tet-off cells were transfected with the TRE2hyg2-XBP-1s plasmid, followed by selection in the presence of […] hygromycine B. Individual clones of stable transfectants were isolated and doxycycline-dependent XBP-1s expression was confirmed by immunoblotting.
Protein Extracts From Cells: At the end of each treatment, cells were immediately frozen in liquid nitrogen and kept at −80° C. Protein extracts were prepared with a lysis buffer, containing 25 mM Tris-HCl (pH7.4), 2 mM Na3VO4, 10 mM NaF, 10 mM Na4P2O7, 1 mM EGTA, 1 mM EDTA, 1% NP40, 5 μg/ml leupeptin, 5 μg/ml aprotinin, 10 nM okadaic acid, and 1 mM PMSF. […]

Data on three molecules can be found in patent US20060063187A1, “Modulation of XBP-1 activity for treatment of metabolic disorders” (priority 2004, published 2006).

Turning to `CSc1ccc(/C=C2/C(C)=C(CC(=O)O)c3cc(F)ccc32)cc1` [sulindac sulfide], the “thapsigargin-induced IRS-1 serine phosphorylation” value in assay [1] (sulindac sulfide 45 minutes, then additional hour of 300 nM thapsigargin) is “did not interfere”. Besides, in assay [1] (sulindac sulfide alone (0, 7.5, 30, 60 μM, 45 minutes)), the “Ser307 phosphorylation of IRS-1” value was “no effect”.
Regarding tunicamycin, the “ER stress (PERK phosphorylation, JNK activation)” value in assay [2] is “failed to stimulate significant ER stress”. The “insulin-stimulated tyrosine phosphorylation of IRS-1” value in assay [3] (WT cells, then insulin) is “inhibited”. Moreover, in assay [3] (WT fibroblasts), the JNK activation entry is recorded as “strong activation” and the “phosphorylation of IRS-1 at Ser307” value is given as “stimulated”. For the same molecule, the “ER stress response (PERK phosphorylation, JNK activation)” value in assay [4] (low dose of tunicamycin 0.5 μg/ml, XBP-1−/− MEFs) is “strong ER stress response”. The “IRS-1 serine (Ser307) phosphorylation” value in assay [4] (tunicamycin 0.5 μg/ml, XBP-1−/− MEFs compared with XBP-1+/+ controls) was “strongly induced”. In addition, in assay [5] (IRE-1α−/− cells, then insulin), the “insulin-stimulated tyrosine phosphorylation of IRS-1” value was “no such effect was detected”. The “phosphorylation of IRS-1 at Ser307” value in assay [5] (IRE-1α−/− fibroblasts) is on record as “not”. Further, in assay [6], the JNK activation entry was “rapid and robust activation”; the PERK phosphorylation result is listed as “strong”; the “peak of PERK phosphorylation” value fell in the range of 3 to 4 h; the “start of PERK phosphorylation” value came to 30 min. The “insulin-stimulated tyrosine phosphorylation of IRS-1” value in assay [1] (Fao cells pretreated with ER stress inducer (tunicamycin 5 μg/ml 3 h; thapsigargin 300 nM 1 h), then insulin) is listed as “significantly decreased”. The “serine (Ser307) phosphorylation of IRS-1” value in assay [1] is on record as “significant increase”. The “insulin-induced Akt phosphorylation (Ser473)” value in assay [1] (Fao cells, tunicamycin pretreatment 5 μg/ml 3 h, then insulin) is “suppressed”.
Take `C/C=C(/C)C(=O)O[C@H]1C(C)=C2[C@H]([C@@H]1OC(=O)CCCCCCC)[C@@](C)(OC(C)=O)C[C@H](OC(=O)CCC)[C@@]1(O)[C@H]2OC(=O)[C@@]1(C)O` [thapsigargin]: the “serine (Ser307) phosphorylation of IRS-1” value in assay [1] is “increased”. Also, the insulin receptor signaling entry in assay [1] (Fao cells, thapsigargin 300 nM 1 h, then insulin) is listed as “suppressed”.
